Laboratory results: ChEMBL document CHEMBL1221208, “ATP-competitive inhibitors of the mitotic kinesin KSP that function via an allosteric mechanism” (Nat Chem Biol, 2007)
Activity calls are given as the source filed them. The calls are words filed in the database; no cut-off is given here.

Columns and labels:
[1] = target: Kinesin-like protein KIF11 (Homo sapiens, UniProt P52732, I299F); test: Inhibition of human KSP I299F mutant in 6x IC95 biaryl selected human HCT116 cells using varying ATP levels in presence of saturating levels of microtubule by Lineweaver-Burke plot; assay type: cell-based, HCT-116
Kinesin-like protein KIF11, sequence (P52732 whole entry I299F): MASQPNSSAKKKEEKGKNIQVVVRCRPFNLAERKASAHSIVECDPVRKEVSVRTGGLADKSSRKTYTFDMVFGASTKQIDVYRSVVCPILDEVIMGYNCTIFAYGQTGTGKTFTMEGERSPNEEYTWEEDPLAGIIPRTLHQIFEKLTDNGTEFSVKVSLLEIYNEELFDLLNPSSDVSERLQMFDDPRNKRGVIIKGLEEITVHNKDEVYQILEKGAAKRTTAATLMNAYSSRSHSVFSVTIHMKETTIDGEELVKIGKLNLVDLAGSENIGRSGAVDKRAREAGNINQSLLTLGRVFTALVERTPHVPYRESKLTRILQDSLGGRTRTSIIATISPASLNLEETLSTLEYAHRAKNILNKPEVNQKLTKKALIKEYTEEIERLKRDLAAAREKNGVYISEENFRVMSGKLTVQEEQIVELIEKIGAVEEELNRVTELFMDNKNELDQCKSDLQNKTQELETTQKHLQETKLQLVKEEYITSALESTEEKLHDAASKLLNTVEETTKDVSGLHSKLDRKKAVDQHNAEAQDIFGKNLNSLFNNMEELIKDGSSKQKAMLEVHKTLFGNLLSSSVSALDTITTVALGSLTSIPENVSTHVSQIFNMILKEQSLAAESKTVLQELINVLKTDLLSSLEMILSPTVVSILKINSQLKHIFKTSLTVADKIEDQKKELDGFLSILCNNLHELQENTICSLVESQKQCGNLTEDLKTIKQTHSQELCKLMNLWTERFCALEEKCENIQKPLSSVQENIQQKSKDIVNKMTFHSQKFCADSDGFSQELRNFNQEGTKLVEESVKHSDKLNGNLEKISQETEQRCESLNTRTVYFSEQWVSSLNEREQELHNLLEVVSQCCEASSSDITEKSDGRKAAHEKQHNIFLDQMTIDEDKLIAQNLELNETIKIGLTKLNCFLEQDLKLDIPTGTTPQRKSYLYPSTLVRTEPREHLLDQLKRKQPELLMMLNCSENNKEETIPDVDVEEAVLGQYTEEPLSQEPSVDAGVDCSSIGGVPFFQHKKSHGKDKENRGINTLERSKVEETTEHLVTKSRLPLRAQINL

SK-OV-3 = test: Induction of monopolar spindle formation in human SKOV3 cells; assay type: functional, cell-based
HCT-116 [2] = test: Antiproliferative activity against human HCT116 cells after 72 hrs by Cell titer Glo assay; assay type: functional, cell-based; conditions: HCT-116, 72 h
HCT-116 [3] = test: Antiproliferative activity against 3x IC95 biaryl selected human HCT116 cells expressing Kinesin-like protein KIF11 D130V mutant after 72 hrs by Cell titer Glo assay; assay type: functional, cell-based; conditions: HCT-116, 72 h

O=C1CCc2cc(-c3ccc(C(F)(F)F)cc3)ccc2N1
Ki [1]: 66 nM
Activity (SK-OV-3): Active
IC50 (HCT-116 [2]): 36 nM
IC50 (HCT-116 [3]): 6.9 nM
